# Test results taken from patent US20240158446A1, “CYCLIC COMPOUND HAVING SELECTIVE INHIBITORY ACTION ON KRAS OVER HRAS AND NRAS” (CHUGAI SEIYAKU KABUSHIKI KAISHA, priority 2021, published 2024).
# Assays:
# [1] = molecular target: GDP-bound KRAS wild-type protein (Homo sapiens, UniProt P01116); experiment: Binding to KRAS by surface plasmon resonance (SPR), Single Cycle Kinetics; settings: SPR, Single Cycle Kinetics, GDP-bound KRAS wild-type protein; read-out: KRAS KD
# [2] = molecular target: GDP-bound NRAS wild-type protein (Homo sapiens, UniProt P01111); experiment: Binding to NRAS by surface plasmon resonance (SPR), Single Cycle Kinetics; settings: SPR, GDP-bound NRAS wild-type protein vs GDP-bound KRAS wild-type protein
# [3] = molecular target: GDP-bound HRAS wild-type protein (Homo sapiens, UniProt P01112); experiment: Binding to HRAS by surface plasmon resonance (SPR), Single Cycle Kinetics; settings: SPR, GDP-bound HRAS wild-type protein vs GDP-bound KRAS wild-type protein
# GDP-bound HRAS wild-type protein, sequence (P01112 whole entry): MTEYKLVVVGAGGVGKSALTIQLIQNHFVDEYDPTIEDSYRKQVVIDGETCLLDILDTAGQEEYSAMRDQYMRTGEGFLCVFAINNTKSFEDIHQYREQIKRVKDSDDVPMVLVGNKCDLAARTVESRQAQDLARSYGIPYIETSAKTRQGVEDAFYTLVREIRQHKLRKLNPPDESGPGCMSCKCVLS
# GDP-bound KRAS wild-type protein, sequence (P01116 whole entry): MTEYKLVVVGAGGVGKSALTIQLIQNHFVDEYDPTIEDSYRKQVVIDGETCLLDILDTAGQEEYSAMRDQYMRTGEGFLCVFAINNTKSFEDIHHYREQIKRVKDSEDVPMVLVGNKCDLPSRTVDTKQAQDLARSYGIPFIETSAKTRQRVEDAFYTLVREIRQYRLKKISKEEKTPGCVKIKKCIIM
# GDP-bound NRAS wild-type protein, sequence (P01111 whole entry): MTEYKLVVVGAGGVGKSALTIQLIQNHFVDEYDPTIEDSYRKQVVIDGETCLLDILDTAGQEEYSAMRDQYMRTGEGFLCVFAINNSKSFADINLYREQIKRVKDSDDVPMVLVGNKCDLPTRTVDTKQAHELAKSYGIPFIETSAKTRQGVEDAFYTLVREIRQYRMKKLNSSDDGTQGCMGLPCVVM
SMILES,Kd [1] [nM],NRAS/KRAS (ratio of KD value for NRAS to KD value for KRAS) [2],HRAS/KRAS (ratio of KD value for HRAS to KD value for KRAS) [3]
CCO[C@@H]1C[C@H]2C(=O)NC3(CCC3)C(=O)N(C)[C@@H](C3CCCC3)C(=O)N(C)[C@H](C(=O)N3CCOCC3)CC(=O)N(CC)[C@@H](CC(C)C)C(=O)N[C@@H]([C@@H](C)CC)C(=O)N(C)CC(=O)N(C)[C@H]3CC(C)=CCN(C3=O)[C@@H](Cc3ccc(C(F)(F)F)cc3)C(=O)N(C)CC(=O)N[C@@H](CCc3cc(F)c(C(F)(F)F)c(F)c3)C(=O)N2C1 [PP1044],1.8,C (A compound having a KD ratio of 0.1 or more and less than 3 is denoted as C),C (A compound having a KD ratio of 0.1 or more and less than 3 is denoted as C)
CCO[C@@H]1C[C@H]2C(=O)NC3(CCCC3)C(=O)N(C)[C@@H](C3CCCC3)C(=O)N(C)[C@H](C(=O)N(C)C)CC(=O)N(C)[C@@H](CC(C)C)C(=O)N[C@@H]([C@@H](C)CC)C(=O)N(C)CC(=O)N(C)[C@H]3CC(C)=C(C)CN(C3=O)[C@@H](Cc3ccc(C(F)(F)F)cc3)C(=O)N(C)CC(=O)N[C@@H](CCc3cc(F)c(C(F)(F)F)c(F)c3)C(=O)N2C1 [PP1045],1.7,C (A compound having a KD ratio of 0.1 or more and less than 3 is denoted as C),C (A compound having a KD ratio of 0.1 or more and less than 3 is denoted as C)
CCO[C@@H]1C[C@H]2C(=O)NC3(CCC3)C(=O)N(C)[C@@H](C3CCCC3)C(=O)N(C)[C@H](C(=O)N(C)C)CC(=O)N(C)[C@@H](CC(C)C)C(=O)N[C@@H]([C@@H](C)CC)C(=O)N3CC[C@H]3C(=O)N(C)[C@H]3CC(C)=C(C)CN(C3=O)[C@@H](Cc3ccc(C(F)(F)F)cc3)C(=O)N(C)CC(=O)N[C@@H](CCc3cc(F)c(C(F)(F)F)c(F)c3)C(=O)N2C1 [PP1047],0.85,C (A compound having a KD ratio of 0.1 or more and less than 3 is denoted as C),C (A compound having a KD ratio of 0.1 or more and less than 3 is denoted as C)
CCO[C@@H]1C[C@H]2C(=O)NC3(CCC3)C(=O)N(C)[C@@H](C3CCCC3)C(=O)N(C)[C@H](C(=O)N(C)C)CC(=O)N(C)[C@@H](CC)C(=O)N[C@@H]([C@@H](C)CC)C(=O)N3CC[C@H]3C(=O)N(C)[C@H]3CC(C)=C(C)CN(C3=O)[C@@H](Cc3ccc(C(F)(F)F)cc3)C(=O)N(C)CC(=O)N[C@@H](CCc3cc(F)c(C(F)(F)F)c(F)c3)C(=O)N2C1 [PP1049],0.91,C (A compound having a KD ratio of 0.1 or more and less than 3 is denoted as C),C (A compound having a KD ratio of 0.1 or more and less than 3 is denoted as C)
CCO[C@@H]1C[C@H]2C(=O)NC3(CCCC3)C(=O)N(C)[C@@H](C3CCCC3)C(=O)N(C)[C@H](C(=O)N(C)C)CC(=O)N(C)[C@@H](CC)C(=O)N[C@@H]([C@@H](C)CC)C(=O)N(C)CC(=O)N(C)[C@H]3CC(C)=C(C)CN(C3=O)[C@@H](Cc3ccc(C(F)(F)F)cc3)C(=O)N(C)CC(=O)N[C@@H](CCc3cc(F)c(C(F)(F)F)c(F)c3)C(=O)N2C1 [PP1050],0.94,C (A compound having a KD ratio of 0.1 or more and less than 3 is denoted as C),C (A compound having a KD ratio of 0.1 or more and less than 3 is denoted as C)
CCO[C@@H]1C[C@H]2C(=O)NC3(CCC3)C(=O)N(C)[C@@H](C3CCCC3)C(=O)N(C)[C@H](C(=O)N(C)C)CC(=O)N(C)[C@@H](CC)C(=O)N[C@@H]([C@@H](C)CC)C(=O)N(CC)CC(=O)N(C)[C@H]3C/C=C\CCN(C3=O)[C@@H](Cc3ccc(C(F)(F)F)cc3)C(=O)N(C)CC(=O)N[C@@H](CCc3cc(F)c(C(F)(F)F)c(F)c3)C(=O)N2C1 [PP1052],0.25,A (a compound having 10 or more and less than 20 is denoted as A),A (a compound having 10 or more and less than 20 is denoted as A)
CCCN1CC(=O)N(C)[C@H]2C/C=C\CCN(C2=O)[C@@H](Cc2ccc(C(F)(F)F)cc2)C(=O)N(C)CC(=O)N[C@@H](CCc2cc(F)c(C(F)(F)F)c(F)c2)C(=O)N2C[C@H](OCC)C[C@H]2C(=O)NC2(CCC2)C(=O)N(C)[C@@H](C2CCCC2)C(=O)N(C)[C@H](C(=O)N(C)C)CC(=O)N(C)[C@@H](CC)C(=O)N[C@@H]([C@@H](C)CC)C1=O [PP1053],0.23,A (a compound having 10 or more and less than 20 is denoted as A),A (a compound having 10 or more and less than 20 is denoted as A)
CCO[C@@H]1C[C@H]2C(=O)NC3(CCC3)C(=O)N(C)[C@@H](C3CCCC3)C(=O)N(C)[C@H](C(=O)N(C)C)CC(=O)N(C)[C@@H](CC)C(=O)N[C@@H]([C@@H](C)CC)C(=O)N(C)[C@@H](C)C(=O)N(C)[C@H]3C/C=C\CCN(C3=O)[C@@H](Cc3ccc(C(F)(F)F)cc3)C(=O)N(C)CC(=O)N[C@@H](CCc3cc(F)c(C(F)(F)F)c(F)c3)C(=O)N2C1 [PP1054],3.9,A (a compound having 10 or more and less than 20 is denoted as A),B (a compound having 3 or more and less than 10 is denoted as B)
CCO[C@@H]1C[C@H]2C(=O)NC3(CCC3)C(=O)N(C)[C@@H](C3CCCC3)C(=O)N(C)[C@H](C(=O)N(C)C)CC(=O)N(C)[C@@H](CC)C(=O)N[C@@H]([C@@H](C)CC)C(=O)N3C[C@H](OCC)C[C@H]3C(=O)N(C)[C@H]3C/C=C\CCN(C3=O)[C@@H](Cc3ccc(C(F)(F)F)cc3)C(=O)N(C)CC(=O)N[C@@H](CCc3cc(F)c(C(F)(F)F)c(F)c3)C(=O)N2C1 [PP1057],0.31,A (a compound having 10 or more and less than 20 is denoted as A),B (a compound having 3 or more and less than 10 is denoted as B)
CCO[C@@H]1C[C@H]2C(=O)NC3(CCC3)C(=O)N(C)[C@@H](C3CCCC3)C(=O)N(C)[C@H](C(=O)N(C)C)CC(=O)N(C)[C@@H](CC)C(=O)N[C@@H]([C@@H](C)CC)C(=O)N3CCSC[C@H]3C(=O)N(C)[C@H]3C/C=C\CCN(C3=O)[C@@H](Cc3ccc(C(F)(F)F)cc3)C(=O)N(C)CC(=O)N[C@@H](CCc3cc(F)c(C(F)(F)F)c(F)c3)C(=O)N2C1 [PP1060],2.6,A (a compound having 10 or more and less than 20 is denoted as A),A (a compound having 10 or more and less than 20 is denoted as A)
CCO[C@@H]1C[C@H]2C(=O)NC3(CCC3)C(=O)N(C)[C@@H](C3CCCC3)C(=O)N(C)[C@H](C(=O)N(C)C)CC(=O)N(C)[C@@H](CC)C(=O)N[C@@H]([C@@H](C)CC)C(=O)N[C@@H](C)C(=O)N(C)[C@H]3C/C=C\CCN(C3=O)[C@@H](Cc3ccc(C(F)(F)F)cc3)C(=O)N(C)CC(=O)N[C@@H](CCc3cc(F)c(C(F)(F)F)c(F)c3)C(=O)N2C1 [PP1065],0.45,A (a compound having 10 or more and less than 20 is denoted as A),B (a compound having 3 or more and less than 10 is denoted as B)
